Test results: publication PMC6345968, “Structural basis for species-selective targeting of Hsp90 in a pathogenic fungus” (Nature Communications, 2019)
pEC50: −log10 of the molar value. Like-named read-outs stand apart in the source and are kept apart here.

Experiments:
Hsp90 in 3T3 lysate = test: FP competition in whole-cell lysate; type: binding, mouse; settings: 3T3 lysate
Method: After vortexing, cell lysate was frozen at −80 °C for 2 h, followed by thawing on ice. The vortex-freeze-thaw step was repeated. […] Aliquots were thawed immediately prior to use.

[1] = biological target: T1, Hsp90 in C. albicans (SC5314) lysate (Candida albicans, UniProt P46598); test: biochemical; type: binding; settings: SC5314 lysate
T1 construct: endogenous in cells; host or cells: C. albicans SC5314 whole-cell lysate
T1 sequence (P46598 whole entry): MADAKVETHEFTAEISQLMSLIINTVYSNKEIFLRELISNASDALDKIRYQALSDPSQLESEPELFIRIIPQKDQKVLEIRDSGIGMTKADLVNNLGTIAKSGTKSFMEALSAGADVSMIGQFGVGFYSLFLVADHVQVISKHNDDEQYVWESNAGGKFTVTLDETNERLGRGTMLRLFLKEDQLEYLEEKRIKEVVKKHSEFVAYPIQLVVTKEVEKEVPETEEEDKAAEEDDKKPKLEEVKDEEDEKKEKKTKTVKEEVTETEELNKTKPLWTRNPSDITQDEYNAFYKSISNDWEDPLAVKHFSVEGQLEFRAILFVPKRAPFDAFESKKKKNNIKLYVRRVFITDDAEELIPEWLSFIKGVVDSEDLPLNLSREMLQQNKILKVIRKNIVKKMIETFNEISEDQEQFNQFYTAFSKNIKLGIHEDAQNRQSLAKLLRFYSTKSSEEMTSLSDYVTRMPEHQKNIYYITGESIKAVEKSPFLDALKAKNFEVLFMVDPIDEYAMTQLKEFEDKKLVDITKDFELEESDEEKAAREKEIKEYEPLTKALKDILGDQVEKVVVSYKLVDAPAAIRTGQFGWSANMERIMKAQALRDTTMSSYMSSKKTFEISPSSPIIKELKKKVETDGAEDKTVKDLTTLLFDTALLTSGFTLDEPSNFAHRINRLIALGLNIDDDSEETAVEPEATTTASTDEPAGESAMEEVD

human Grp94 NBD = human Grp94 NBD (Homo sapiens, UniProt P14625); settings: 0.1 nM Cy3-GdA; for FP signal (raw) / FP signal as fraction of no-compound (0 uM) control: Experiments 1-3
Chain of human Grp94 NBD (P14625 63-337): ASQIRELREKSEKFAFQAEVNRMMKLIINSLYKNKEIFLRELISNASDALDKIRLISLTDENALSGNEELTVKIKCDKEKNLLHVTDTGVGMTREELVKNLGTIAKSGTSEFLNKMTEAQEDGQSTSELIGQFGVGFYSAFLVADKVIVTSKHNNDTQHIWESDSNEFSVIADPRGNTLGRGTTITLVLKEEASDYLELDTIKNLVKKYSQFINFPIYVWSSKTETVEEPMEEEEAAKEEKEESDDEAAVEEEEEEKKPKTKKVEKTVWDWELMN

COc1ccc(CON=C2C=CC=CC3OC3CC(C)OC(=O)c3c(O)cc(O)cc3C2)cc1 (mixture of isomers) [CMLD075]
FP signal (raw) (Hsp90 in 3T3 lysate; 0.625 uM): 206
FP signal, fraction of control (Hsp90 in 3T3 lysate; 0.625 uM): 0.8207
FP signal (raw) (Hsp90 in 3T3 lysate; 2.5 uM): 144
FP signal, fraction of control (Hsp90 in 3T3 lysate; 2.5 uM): 0.5737
FP signal (raw) (Hsp90 in 3T3 lysate; 5 uM): 102
FP signal, fraction of control (Hsp90 in 3T3 lysate; 5 uM): 0.4064
FP signal (raw) (Hsp90 in 3T3 lysate; 10 uM): 52
FP signal, fraction of control (Hsp90 in 3T3 lysate; 10 uM): 0.2072
EC50 (Hsp90 in 3T3 lysate; fit against log conc uM): 3.42 µM
FP signal (raw) ([1]; 0.002 uM): 169
FP signal, fraction of control ([1]; 0.002 uM): 0.8989
FP signal (raw) ([1]; 0.004 uM): 160
FP signal, fraction of control ([1]; 0.004 uM): 0.8511
FP signal (raw) ([1]; 0.008 uM): 155
FP signal, fraction of control ([1]; 0.008 uM): 0.8245
FP signal (raw) ([1]; 0.01 uM): 60
FP signal, fraction of control ([1]; 0.01 uM): 0.3226
FP signal (raw) ([1]; 0.016 uM): 142
FP signal, fraction of control ([1]; 0.016 uM): 0.7553
FP signal (raw) ([1]; 0.02 uM): 50
FP signal, fraction of control ([1]; 0.02 uM): 0.2688
FP signal (raw) ([1]; 0.063 uM): 103
FP signal, fraction of control ([1]; 0.063 uM): 0.5479
FP signal (raw) ([1]; 0.078 uM): 24
FP signal, fraction of control ([1]; 0.078 uM): 0.129
FP signal (raw) ([1]; 0.25 uM): 60
FP signal, fraction of control ([1]; 0.25 uM): 0.3191
FP signal (raw) ([1]; 0.313 uM): 14
FP signal, fraction of control ([1]; 0.313 uM): 0.07527
FP signal (raw) ([1]; 0.5 uM): 38
FP signal, fraction of control ([1]; 0.5 uM): 0.2021
FP signal (raw) ([1]; 0.625 uM): 7
FP signal, fraction of control ([1]; 0.625 uM): 0.03763
FP signal (raw) ([1]; 1 uM): 6
FP signal, fraction of control ([1]; 1 uM): 0.03191
FP signal (raw) ([1]; 2 uM): 0
FP signal, fraction of control ([1]; 2 uM): 0
FP signal (raw) ([1]; 2.5 uM): 3
FP signal, fraction of control ([1]; 2.5 uM): 0.01613
FP signal (raw) ([1]; 5 uM): 0
FP signal, fraction of control ([1]; 5 uM): 0
FP signal (raw) ([1]; 10 uM): -4
FP signal, fraction of control ([1]; 10 uM): -0.02151
EC50 ([1]; fit against log conc uM, read-out: EC50): 0.102 µM
pEC50 (human Grp94 NBD; Experiments 1-3, one value per experiment): 6.58
FP signal (raw) (human Grp94 NBD; Cmpd 0.002 uM): 93
FP signal as fraction of no-compound (0 uM) control (human Grp94 NBD; Cmpd 0.002 uM): 0.9208
FP signal (raw) (human Grp94 NBD; Cmpd 0.004 uM): 89
FP signal as fraction of no-compound (0 uM) control (human Grp94 NBD; Cmpd 0.004 uM): 0.8812
FP signal (raw) (human Grp94 NBD; Cmpd 0.008 uM): 88
FP signal as fraction of no-compound (0 uM) control (human Grp94 NBD; Cmpd 0.008 uM): 0.8713
FP signal (raw) (human Grp94 NBD; Cmpd 0.016 uM): 85
FP signal as fraction of no-compound (0 uM) control (human Grp94 NBD; Cmpd 0.016 uM): 0.8416
FP signal (raw) (human Grp94 NBD; Cmpd 0.063 uM): 73
FP signal as fraction of no-compound (0 uM) control (human Grp94 NBD; Cmpd 0.063 uM): 0.7228
FP signal (raw) (human Grp94 NBD; Cmpd 0.25 uM): 51
FP signal as fraction of no-compound (0 uM) control (human Grp94 NBD; Cmpd 0.25 uM): 0.505
FP signal (raw) (human Grp94 NBD; Cmpd 0.5 uM): 33
FP signal as fraction of no-compound (0 uM) control (human Grp94 NBD; Cmpd 0.5 uM): 0.3267
FP signal (raw) (human Grp94 NBD; Cmpd 1 uM): 15
FP signal as fraction of no-compound (0 uM) control (human Grp94 NBD; Cmpd 1 uM): 0.1485
FP signal (raw) (human Grp94 NBD; Cmpd 2 uM): 11
FP signal as fraction of no-compound (0 uM) control (human Grp94 NBD; Cmpd 2 uM): 0.1089
